Assay results from ChEMBL document CHEMBL3997827, “Synthesis of novel spiro[pyrazolo[4,3-d]pyrimidinones and spiro[benzo[4,5]thieno[2,3-d]pyrimidine-2,3'-indoline]-2',4(3H)-diones and their evaluation for anticancer activity” (Bioorg Med Chem Lett, 2017).

Tests used:
K562 = test: Cytotoxicity against human K562 cells assessed as decrease in cell viability after 24 hrs by MTT assay; assay type: functional, cell-based; details: K562, 24 h
MDA-MB-231 = test: Cytotoxicity against human MDA-MB-231 cells assessed as decrease in cell viability after 24 hrs by MTT assay; assay type: functional, cell-based; details: MDA-MB-231, 24 h
COLO 205 = test: Cytotoxicity against human COLO205 cells assessed as decrease in cell viability after 24 hrs by MTT assay; assay type: functional, cell-based; details: COLO 205, 24 h
[1] = target: T1, NAD-dependent protein deacetylase sirtuin-1 (Homo sapiens) (UniProt Q96EB6); test: Inhibition of human Sirt1 expressed in bacteria at 10 uM using fluorophorelabeled substrate peptide after 15 mins by fluorescence assay relative to control
T1 sequence (whole entry): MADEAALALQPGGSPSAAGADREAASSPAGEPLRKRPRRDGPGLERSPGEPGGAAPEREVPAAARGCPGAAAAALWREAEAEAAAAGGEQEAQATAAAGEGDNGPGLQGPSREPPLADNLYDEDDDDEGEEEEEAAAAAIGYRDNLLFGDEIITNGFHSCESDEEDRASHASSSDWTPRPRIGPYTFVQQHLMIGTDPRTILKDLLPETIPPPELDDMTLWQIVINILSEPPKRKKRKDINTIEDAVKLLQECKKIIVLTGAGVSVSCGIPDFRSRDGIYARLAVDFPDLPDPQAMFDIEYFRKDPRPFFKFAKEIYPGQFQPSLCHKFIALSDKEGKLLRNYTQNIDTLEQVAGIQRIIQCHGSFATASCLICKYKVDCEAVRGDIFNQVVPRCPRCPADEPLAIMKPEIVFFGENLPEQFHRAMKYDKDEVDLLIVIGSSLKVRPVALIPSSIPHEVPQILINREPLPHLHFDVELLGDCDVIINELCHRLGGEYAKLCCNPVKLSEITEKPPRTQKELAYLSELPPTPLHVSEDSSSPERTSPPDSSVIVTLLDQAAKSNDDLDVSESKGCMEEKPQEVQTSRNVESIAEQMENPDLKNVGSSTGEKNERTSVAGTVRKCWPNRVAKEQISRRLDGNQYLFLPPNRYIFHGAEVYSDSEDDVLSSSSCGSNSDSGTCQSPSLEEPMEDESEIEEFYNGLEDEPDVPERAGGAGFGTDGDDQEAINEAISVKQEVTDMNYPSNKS

Compound	IC50 (K562)	IC50 (MDA-MB-231)	IC50 (COLO 205)	inhibition [1]
CCCc1nn(C)c2c1NC1(CCCCC1)NC2=O	16 µM	35 µM	18 µM	–
CN1C(=O)C2(NC(=O)c3c(sc4c3CCCC4)N2)c2ccccc21 (centres undefined)	16 µM	39 µM	9 µM	46 to 69%
CCCc1nn(C)c2c1NC1(NC2=O)C(=O)N(Cc2ccccc2)c2ccccc21 (centres undefined)	16 µM	38 µM	15 µM	46 to 69%
CC(C)N1C(=O)C2(NC(=O)c3c(sc4c3CCCC4)N2)c2ccccc21 (centres undefined)	12 µM	22 µM	6 µM	46 to 69%
CCCc1nn(C)c2c1NC1(CCCCCC1)NC2=O	21 µM	52 µM	26 µM	–
CCCc1nn(C)c2c1NC1(NC2=O)C(=O)N(C(=O)OC(C)(C)C)c2ccccc21 (centres undefined)	15 µM	28 µM	10 µM	46 to 69%
CCCc1nn(C)c2c1NC1(NC2=O)C(=O)N(CC)c2ccccc21 (centres undefined)	22 µM	41 µM	16 µM	–
CCCc1nn(C)c2c1NC1(NC2=O)C(=O)N(C)c2ccccc21 (centres undefined)	20 µM	34 µM	15 µM	–
CCCCCCCCCCCCN1C(=O)C2(NC(=O)c3c(sc4c3CCCC4)N2)c2ccccc21 (centres undefined)	27 µM	29 µM	16 µM	–
CCCc1nn(C)c2c1NC1(CCCC1)NC2=O	14 µM	34 µM	17 µM	–
CCCCCCCCCCCCCCCCN1C(=O)C2(NC(=O)c3c(sc4c3CCCC4)N2)c2ccccc21 (centres undefined)	19 µM	34 µM	18 µM	46 to 69%
CCCc1nn(C)c2c1NC1(CCC(C)(C)CC1)NC2=O	19 µM	45 µM	24 µM	–
CCN1C(=O)C2(NC(=O)c3c(sc4c3CCCC4)N2)c2ccccc21 (centres undefined)	21 µM	34 µM	12 µM	–
